Residues, ends and D or L forms follow the SMILES beside them.
Tests used:
[1] = tested on: LPS (lipopolysaccharides) from P. aeruginosa; test: LPS binding assay, BODIPY TR cadaverine (BC) displacement; set-up: species or system Pseudomonas aeruginosa; conditions: 100% = total displacement of the dye; mean ± SEM
Description: Following, LPS binding affinity was monitored by a fluorometric assay which measures the competitive displacement of a cadaverine fluorescent probe (BC) by the protein and peptides. The half LPS binding affinity (ED50), defined as the AMP concentration needed to achieve half of BC displacement, and the total LPS binding affinity, expressed as a percentage, were determined (Table 4). Interaction with negatively charged surfaces of bacteria is the first step for cationic peptides to reach the bacterial membranes and exert their antimicrobial action.
LPS binding was assessed using the fluorescent probe BODIPY TR cadaverine (BC) as previously described (Pulido D. et al. Febs J 2013). BC binds strongly to native LPS, specifically recognizing the lipid A portion. When a protein that interacts with LPS is added, BC is displaced from the complex and its fluorescence is increased, decreasing its occupancy factor. LPS-binding assays were carried out in a 10 mM Hepes buffer at pH 7.5. The displacement assay was performed using a 96 well microtiter plate containing stirred mixture of either LPS (10 μg/mL) and BC (10 μM). Protein/peptides were serially diluted from 10 to 0.1 μM. Fluorescence measurements were performed on a Victor3 plate reader (Perkin Elmer, Waltham, Mass.). The protein/peptide concentration required to achieve half of total and total BC displacement was estimated from nonlinear regression analysis as previously described (Wood S. J. et al. 2004)

[2] = tested on: pre-established P. aeruginosa biofilm; test: Biofilm cell mortality, BacTiter-Glo luminescent assay; type: cell-based, Pseudomonas aeruginosa; conditions: 24 h formed biofilm; 4 h at 37° C.; 10% Triton X-100 as maximum reference; N.D. = not detected at 50 μM
[3] = tested on: established P. aeruginosa biofilms; test: DiSC3(5) membrane depolarization assay on biofilm; type: cell-based, Pseudomonas aeruginosa; conditions: maximum percentage at final incubation time, 10% Triton X-100 reference
Description: Membrane depolarization was followed using the method described earlier (Torrent M. et al. 2008). Briefly, bacterial cells were grown at 37° C. to an OD600=0.2, centrifuged at 5000×g for 7 min, washed with 5 mM Hepes at pH 7.2 containing 20 mM glucose, and resuspended in 5 mM Hepes-KOH, 20 mM glucose, and 100 mM KCl at pH 7.2 to an OD600=0.05 and 200 μl were transferred to a microtiter plate for planktonic assays. For biofilm assay, 24 h formed P. aeruginosa biofilm in a 96-well microtiter plate were washed three times with sterile PBS. Afterwards P. aeruginosa biofilms were washed with 5 mM Hepes at pH 7.2 containing 20 mM glucose, and rinsed in 5 mM Hepes-KOH, 20 mM glucose, and 100 mM KCl at pH 7.2. In both cases, DiSC3(5) was added to a final concentration of 0.4 μM and changes in the fluorescence were continuously recorded after addition of peptides at 10 μM in a Victor3 plate reader. A maximum reference value for total depolarization is calculated for Triton X-100 at 10%. Alternatively, changes in the fluorescence were continuously recorded after addition of a serially diluted protein/peptides from 50 to 0.1 μM. The peptide concentration required to achieve half of total and total membrane depolarization after 40 min incubation time was estimated from nonlinear regression analysis as previously described (Torrent M. et al. 2010)
Thereupon, the antimicrobial mechanism of action of the RNase 3 derived peptide on P. aeruginosa biofilms was further characterized with the depolarization and permeabilization assays. As applied for the P. aeruginosa planktonic culture, the fluorescent DisC3(5) assay was also used here in order to monitor the depolarization activity of the studied protein and peptides against established biofilms. Therefore, we have measured the half depolarization action (ED50), and the total depolarization activity expressed as a percentage (Table 7). […] Similar results were obtained for the Sytox Green permeabilization assay, where the total permeabilization effect was hindered for all the AMPs tested, and between two to ten times higher concentrations were required to achieve half of the biofilm cell permeabilizing effect in comparison to the planktonic cells.

Compound | LPS binding %max (percentage of maximum displacement) [1] [%] | Biofilm cell mortality (%max) [2] | Depolarization Mean % ± SEM [3] [%]
CC[C@H](C)[C@H](NC(=O)[C@H](CCC(N)=O)NC(=O)CN)C(=O)N[C@H](C(=O)N[C@@H](CC(N)=O)C(=O)N[C@@H](CC(C)C)C(=O)N[C@@H](CCCCN)C(=O)N[C@@H](C)C(=O)N[C@@H](CO)C(=O)N[C@@H](CC(C)C)C(=O)N[C@@H](CC(=O)O)C(=O)N[C@@H](CC(C)C)C(=O)N[C@@H](CC(C)C)C(N)=O)[C@@H](C)CC [GL-13, GQIINLKASLDLL-NH2] (H-GQIINLKASLDLL-NH2) | 44.37 ± 3.84 | unable to perform any cell mortality | –
CC[C@H](C)[C@H](NC(=O)CNC(=O)[C@@H](NC(=O)[C@H](CCCCN)NC(=O)[C@H](CCCCN)NC(=O)[C@H](Cc1ccccc1)NC(=O)[C@H](CC(C)C)NC(=O)[C@H](CCCCN)NC(=O)[C@H](Cc1c[nH]c2ccccc12)NC(=O)[C@@H](N)CCCCN)[C@@H](C)CC)C(=O)NCC(=O)N[C@@H](C)C(=O)N[C@H](C(=O)N[C@@H](CC(C)C)C(=O)N[C@@H](CCCCN)C(=O)N[C@H](C(=O)N[C@@H](CC(C)C)C(=O)N[C@H](C(=O)N[C@H](C(=O)NCC(=O)N[C@@H](CC(C)C)C(=O)N1CCC[C@H]1C(=O)N[C@@H](C)C(=O)N[C@@H](CC(C)C)C(=O)N[C@H](C(=O)N[C@@H](CO)C(N)=O)[C@@H](C)CC)[C@@H](C)O)[C@@H](C)O)C(C)C)C(C)C [CA-M] | 69.16 ± 6.23 | – | 39.09 ± 2.46
CC[C@H](C)[C@H](NC(=O)[C@H](CCCCN)NC(=O)[C@H](CCC(=O)O)NC(=O)[C@H](CCCCN)NC(=O)[C@H](CO)NC(=O)[C@H](CCCCN)NC(=O)[C@H](CCCNC(=N)N)NC(=O)[C@H](Cc1ccccc1)NC(=O)[C@H](Cc1ccccc1)NC(=O)[C@H](CC(=O)O)NC(=O)CNC(=O)[C@H](CC(C)C)NC(=O)[C@@H](N)CC(C)C)C(=O)NCC(=O)N[C@@H](CCCCN)C(=O)N[C@@H](CCC(=O)O)C(=O)N[C@@H](Cc1ccccc1)C(=O)N[C@@H](CCCCN)C(=O)N[C@@H](CCCNC(=N)N)C(=O)N[C@H](C(=O)N[C@H](C(=O)N[C@@H](CCC(N)=O)C(=O)N[C@@H](CCCNC(=N)N)C(=O)N[C@H](C(=O)N[C@@H](CCCCN)C(=O)N[C@@H](CC(=O)O)C(=O)N[C@@H](Cc1ccccc1)C(=O)N[C@@H](CC(C)C)C(=O)N[C@@H](CCCNC(=N)N)C(=O)N[C@@H](CC(N)=O)C(=O)N[C@@H](CC(C)C)C(=O)N[C@H](C(=O)N1CCC[C@H]1C(=O)N[C@@H](CCCNC(=N)N)C(=O)N[C@H](C(=O)N[C@@H](CCC(=O)O)C(=O)N[C@@H](CO)C(N)=O)[C@@H](C)O)C(C)C)[C@@H](C)CC)C(C)C)[C@@H](C)CC [LL-37] | – | – | 31.85 ± 1.15
